PubChem BioAssay (NCI)
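Results reflect a 48-hour exposure of cells in 96-well plates to compound at five concentrations. GI50 marks 50% less growth. TGI is the concentration that stops growth completely.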

Tests used:
Experiment in all cases: DTP human tumour cell line panel, 48 h
786-0 renal = tested on: 786-0 renal
A498 renal = tested on: A498 renal
A549 NSCLC = tested on: A549 NSCLC
ACHN renal = tested on: ACHN renal
BT-549 breast = tested on: BT-549 breast
CAKI-1 renal = tested on: CAKI-1 renal
CCRF-CEM leukemia = tested on: CCRF-CEM leukemia
COLO 205 colon = tested on: COLO 205 colon
DU-145 prostate = tested on: DU-145 prostate
EKVX NSCLC = tested on: EKVX NSCLC
HCC-2998 colon = tested on: HCC-2998 colon
HCT-116 colon = tested on: HCT-116 colon
HCT-15 colon = tested on: HCT-15 colon
HL-60(TB) leukemia = tested on: HL-60(TB) leukemia
HOP-62 NSCLC = tested on: HOP-62 NSCLC
HOP-92 NSCLC = tested on: HOP-92 NSCLC
HS 578T breast = tested on: HS 578T breast
HT29 colon = tested on: HT29 colon
IGROV1 ovarian = tested on: IGROV1 ovarian
K-562 leukemia = tested on: K-562 leukemia
KM12 colon = tested on: KM12 colon
LOX IMVI melanoma = tested on: LOX IMVI melanoma
M14 melanoma = tested on: M14 melanoma
MALME-3M melanoma = tested on: MALME-3M melanoma
MCF7 breast = tested on: MCF7 breast
MDA-MB-231 breast = tested on: MDA-MB-231 breast
MDA-MB-435 = tested on: MDA-MB-435
MOLT-4 leukemia = tested on: MOLT-4 leukemia
NCI-H226 lung = tested on: NCI-H226 lung
NCI-H23 lung = tested on: NCI-H23 lung
NCI-H460 lung = tested on: NCI-H460 lung
NCI-H522 lung = tested on: NCI-H522 lung
NCI/ADR-RES ovarian = tested on: NCI/ADR-RES ovarian
OVCAR-3 ovarian = tested on: OVCAR-3 ovarian
OVCAR-4 ovarian = tested on: OVCAR-4 ovarian
OVCAR-5 ovarian = tested on: OVCAR-5 ovarian
OVCAR-8 ovarian = tested on: OVCAR-8 ovarian
PC-3 prostate = tested on: PC-3 prostate
RPMI-8226 leukemia = tested on: RPMI-8226 leukemia
RXF 393 renal = tested on: RXF 393 renal
SF-268 CNS = tested on: SF-268 CNS
SF-295 CNS = tested on: SF-295 CNS
SF-539 CNS = tested on: SF-539 CNS
SK-MEL-2 melanoma = tested on: SK-MEL-2 melanoma
SK-MEL-28 melanoma = tested on: SK-MEL-28 melanoma
SK-MEL-5 melanoma = tested on: SK-MEL-5 melanoma
SK-OV-3 ovarian = tested on: SK-OV-3 ovarian
SN12C renal = tested on: SN12C renal
SNB-19 CNS = tested on: SNB-19 CNS
SNB-75 CNS = tested on: SNB-75 CNS
SR leukemia = tested on: SR leukemia
SW-620 colon = tested on: SW-620 colon
T-47D breast = tested on: T-47D breast
TK-10 renal = tested on: TK-10 renal
U251 CNS = tested on: U251 CNS
UACC-257 melanoma = tested on: UACC-257 melanoma
UACC-62 melanoma = tested on: UACC-62 melanoma
UO-31 renal = tested on: UO-31 renal

For `COc1ccccc1-[n+]1cc(-c2ccc(-c3ccccc3)cc2)n2c1CCCCC2`, the GI50 (786-0 renal) was 1310 nM, the TGI (786-0 renal) was 11500 nM and the GI50 (A498 renal) was 615 nM. It also gave a TGI (A498 renal) of 7500 nM, a GI50 (A549 NSCLC) of 510 nM and a TGI (A549 NSCLC) of 16700 nM. The GI50 (ACHN renal) was 2450 nM, the TGI (ACHN renal) was 11300 nM and the GI50 (BT-549 breast) was 150 nM. The TGI (BT-549 breast) was 1250 nM, the GI50 (CAKI-1 renal) was 11500 nM and the TGI (CAKI-1 renal) was 33400 nM. It also gave a GI50 (CCRF-CEM leukemia) of 224 nM, a TGI (CCRF-CEM leukemia) of 23900 nM and a GI50 (COLO 205 colon) of 236 nM. It also gave a TGI (COLO 205 colon) of 2620 nM, a GI50 (DU-145 prostate) of 444 nM and a TGI (DU-145 prostate) of 14800 nM. It also gave a GI50 (EKVX NSCLC) of 152 nM, a TGI (EKVX NSCLC) of 14400 nM and a GI50 (HCC-2998 colon) of 318 nM. For the same molecule, the TGI (HCC-2998 colon) was 12600 nM, the GI50 (HCT-116 colon) was 231 nM and the TGI (HCT-116 colon) was 11900 nM. It also gave a GI50 (HCT-15 colon) of 4350 nM, a TGI (HCT-15 colon) of 20200 nM and a GI50 (HL-60(TB) leukemia) of 42.9 nM. For the same molecule, the TGI (HL-60(TB) leukemia) was 1010 nM, the GI50 (HOP-62 NSCLC) was 1290 nM and the TGI (HOP-62 NSCLC) was 15400 nM. The GI50 (HOP-92 NSCLC) was 184 nM, the TGI (HOP-92 NSCLC) was 1970 nM and the GI50 (HS 578T breast) was 1070 nM. For the same molecule, the TGI (HS 578T breast) was 31800 nM, the GI50 (HT29 colon) was 281 nM and the TGI (HT29 colon) was 10200 nM. The GI50 (IGROV1 ovarian) was 617 nM, the TGI (IGROV1 ovarian) was 13500 nM and the GI50 (K-562 leukemia) was 173 nM. It also gave a TGI (K-562 leukemia) of 13100 nM, a GI50 (KM12 colon) of 288 nM and a TGI (KM12 colon) of 3170 nM. It also gave a GI50 (LOX IMVI melanoma) of 322 nM, a TGI (LOX IMVI melanoma) of 8100 nM and a GI50 (M14 melanoma) of 443 nM. The TGI (M14 melanoma) was 10100 nM, the GI50 (MALME-3M melanoma) was 158 nM and the TGI (MALME-3M melanoma) was 869 nM. For the same molecule, the GI50 (MCF7 breast) was 229 nM, the TGI (MCF7 breast) was 11200 nM and the GI50 (MDA-MB-231 breast) was 276 nM. For the same molecule, the TGI (MDA-MB-231 breast) was 2390 nM, the GI50 (MDA-MB-435) was 270 nM and the TGI (MDA-MB-435) was 3600 nM. For the same molecule, the GI50 (MOLT-4 leukemia) was 292 nM, the TGI (MOLT-4 leukemia) was 3970 nM and the GI50 (NCI-H226 lung) was 773 nM. It also gave a TGI (NCI-H226 lung) of 13400 nM, a GI50 (NCI-H23 lung) of 101 nM and a TGI (NCI-H23 lung) of 10100 nM. The GI50 (NCI-H460 lung) was 388 nM, the TGI (NCI-H460 lung) was 11500 nM and the GI50 (NCI-H522 lung) was 169 nM. For the same molecule, the TGI (NCI-H522 lung) was 9030 nM, the GI50 (NCI/ADR-RES ovarian) was 19800 nM and the TGI (NCI/ADR-RES ovarian) was 60400 nM. For the same molecule, the GI50 (OVCAR-3 ovarian) was 233 nM, the TGI (OVCAR-3 ovarian) was 12400 nM and the GI50 (OVCAR-4 ovarian) was 116 nM. For the same molecule, the TGI (OVCAR-4 ovarian) was 12500 nM, the GI50 (OVCAR-5 ovarian) was 668 nM and the TGI (OVCAR-5 ovarian) was 16600 nM. For the same molecule, the GI50 (OVCAR-8 ovarian) was 528 nM, the TGI (OVCAR-8 ovarian) was 15900 nM and the GI50 (PC-3 prostate) was 228 nM. It also gave a TGI (PC-3 prostate) of 8950 nM, a TGI (RPMI-8226 leukemia) of 1530 nM and a GI50 (RXF 393 renal) of 867 nM. For the same molecule, the TGI (RXF 393 renal) was 9500 nM, the GI50 (SF-268 CNS) was 423 nM and the TGI (SF-268 CNS) was 14800 nM. For the same molecule, the GI50 (SF-295 CNS) was 359 nM, the TGI (SF-295 CNS) was 4030 nM and the GI50 (SF-539 CNS) was 348 nM. It also gave a TGI (SF-539 CNS) of 13200 nM, a GI50 (SK-MEL-2 melanoma) of 237 nM and a TGI (SK-MEL-2 melanoma) of 2220 nM. It also gave a GI50 (SK-MEL-28 melanoma) of 384 nM, a TGI (SK-MEL-28 melanoma) of 11200 nM and a GI50 (SK-MEL-5 melanoma) of 166 nM. It also gave a TGI (SK-MEL-5 melanoma) of 475 nM, a GI50 (SK-OV-3 ovarian) of 368 nM and a TGI (SK-OV-3 ovarian) of 5820 nM. For the same molecule, the GI50 (SN12C renal) was 288 nM, the TGI (SN12C renal) was 10500 nM and the GI50 (SNB-19 CNS) was 261 nM. It also gave a TGI (SNB-19 CNS) of 12100 nM, a GI50 (SNB-75 CNS) of 325 nM and a TGI (SNB-75 CNS) of 13400 nM. For the same molecule, the GI50 (SR leukemia) was 304 nM, the TGI (SR leukemia) was 24100 nM and the GI50 (SW-620 colon) was 587 nM. The TGI (SW-620 colon) was 12700 nM, the GI50 (T-47D breast) was 77.4 nM and the TGI (T-47D breast) was 11900 nM. It also gave a GI50 (TK-10 renal) of 638 nM, a TGI (TK-10 renal) of 13000 nM and a GI50 (U251 CNS) of 383 nM. The TGI (U251 CNS) was 15700 nM, the GI50 (UACC-257 melanoma) was 318 nM and the TGI (UACC-257 melanoma) was 12900 nM. The GI50 (UACC-62 melanoma) was 159 nM, the TGI (UACC-62 melanoma) was 1800 nM and the GI50 (UO-31 renal) was 2190 nM. For the same molecule, the TGI (UO-31 renal) was 11100 nM.
